For ten compounds, GI50 and TGI results are on record in PubChem BioAssay (NCI).

As usually defined, the GI50 is the concentration at which growth is held to half of that of the control. By TGI is commonly meant the concentration giving total growth inhibition. A high value points to lower sensitivity of the cells.

Among the test systems are HCC-2998 colon; HCT-15 colon; HS 578T breast; MCF7 breast; MDA-MB-231 breast; OVCAR-5 ovarian; SF-295 CNS; SK-MEL-28 melanoma; SK-MEL-5 melanoma; TK-10 renal.
Experiment in all cases: DTP human tumour cell line panel, 48 h

Each structure is given as a SMILES string.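 A five-concentration, 48-hour dose response in 96-well plates underlies each endpoint, interpolated linearly between surrounding concentrations. The concentration for 50% growth inhibition is given as GI50. TGI: concentration producing complete growth inhibition.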

As to `CC(C)c1[nH]nc2c(NCc3ccc(-c4ccccn4)cc3)nc(SCCN(C)C)nc12`, the 50% growth inhibitory concentration (GI50) with HCC-2998 colon is < 0.0185 µM; with HCT-15 colon, 0.0872 µM; in the assay on HS 578T breast, 0.0271 µM; in the assay with MCF7 breast, < 0.0218 µM; in the assay with MDA-MB-231 breast, 0.0257 µM; with OVCAR-5 ovarian it was 0.0572 µM. The GI50 in the assay with SF-295 CNS was 0.0799 µM; with SK-MEL-28 melanoma it was 0.0226 µM; with SK-MEL-5 melanoma, 0.153 µM; in the assay on TK-10 renal, 0.0456 µM. Besides, the TGI stood at 0.844 µM in the assay on HCC-2998 colon; 10.9 µM with HCT-15 colon; 9.4 µM in the assay with HS 578T breast; 10.5 µM with MCF7 breast; 8.3 µM in the assay with MDA-MB-231 breast; 11.2 µM in the assay with OVCAR-5 ovarian. Moreover, the TGI in the assay with SF-295 CNS was 1.92 µM; with SK-MEL-28 melanoma, 0.21 µM; in the assay with SK-MEL-5 melanoma it was 0.552 µM; in the assay on TK-10 renal, 11.9 µM.

Turning to `CN(C)CC1C(=O)O[C@H]2[C@H]1CC/C(COC(=O)NCc1ccc(Cn3c(=O)sn(CCCI)c3=O)cc1)=C\CC[C@@]1(C)O[C@@H]21` (some centres not stated), the GI50 in the assay with HCC-2998 colon is 7.56 µM; with HCT-15 colon, 0.965 µM; with HS 578T breast, 5.75 µM; in the assay on MDA-MB-231 breast, 0.906 µM; in the assay on OVCAR-5 ovarian, 1.38 µM; in the assay with SF-295 CNS it was 7.43 µM. The GI50 in the assay on SK-MEL-28 melanoma was 0.92 µM; in the assay with SK-MEL-5 melanoma it was 6.53 µM; in the assay on TK-10 renal, 0.862 µM. Also, the TGI in the assay on HCC-2998 colon was found to be 15.4 µM; with HCT-15 colon, 2.13 µM; in the assay on HS 578T breast, 17.7 µM; with MDA-MB-231 breast it was 1.8 µM; with OVCAR-5 ovarian, 5.04 µM; in the assay with SF-295 CNS it was 14.5 µM. For the same compound, the TGI is 1.82 µM in the assay with SK-MEL-28 melanoma, 13.3 µM in the assay on SK-MEL-5 melanoma and 1.64 µM in the assay with TK-10 renal.

For `O=C1C(Cl)=C(Nc2cc(Cl)ccc2O)C(=O)N1Cc1ccccc1`, the GI50 in the assay on HCT-15 colon is 17 µM; in the assay with HS 578T breast it was 21.7 µM; with MCF7 breast, 21 µM; in the assay on MDA-MB-231 breast, 17.5 µM; in the assay on OVCAR-5 ovarian it was 18.8 µM; in the assay with SF-295 CNS, 18.3 µM. Also, the GI50 with SK-MEL-28 melanoma is 16.1 µM; in the assay with SK-MEL-5 melanoma, 16.1 µM; with TK-10 renal, 21.4 µM. In addition, the total growth inhibition concentration (TGI) with HCT-15 colon came out at 32.6 µM; in the assay with HS 578T breast, 49.6 µM; with MCF7 breast, 52.9 µM; in the assay on MDA-MB-231 breast, 33.2 µM; with OVCAR-5 ovarian, 35.4 µM; with SF-295 CNS, 38.4 µM. The results for the total growth inhibition concentration (TGI) in the assay with SK-MEL-28 melanoma, with SK-MEL-5 melanoma and in the assay on TK-10 renal were 34.2 µM, 29.9 µM and 42.9 µM, respectively.

`Cn1c2c(c3ccccc3c1=O)C(=O)c1ccccc1-2`: the TGI in the assay with HCT-15 colon, with HS 578T breast, in the assay on MCF7 breast, in the assay with MDA-MB-231 breast, with OVCAR-5 ovarian and in the assay with SF-295 CNS was > 100 µM throughout. Further, the total growth inhibition concentration (TGI) with SK-MEL-28 melanoma, in the assay on SK-MEL-5 melanoma and in the assay on TK-10 renal was > 100 µM in each case.

`CC(=O)c1ccc2c3c1[C@H]1O[C@H]1c1cccc(c1-3)[C@@H]1O[C@H]21`: the TGI in the assay on HCT-15 colon is 4.12 µM; in the assay with HS 578T breast it was 4.95 µM; with MCF7 breast it was > 33.5 µM; with MDA-MB-231 breast, 4.44 µM; with OVCAR-5 ovarian, 3.68 µM; with SF-295 CNS, 18 µM. Further, the results for the TGI in the assay on SK-MEL-28 melanoma, in the assay on SK-MEL-5 melanoma and in the assay on TK-10 renal were 5.96 µM, 5.39 µM and > 51.2 µM, respectively.

For `COc1cc2c3c(n([C@@H]4CCOC4)c(=O)c2cc1OC)-c1cc2c(cc1C3=O)OCO2`, the GI50 in the assay on HS 578T breast was > 100 µM; in the assay with MCF7 breast, < 0.01 µM; with SF-295 CNS, < 0.01 µM; with TK-10 renal it was > 100 µM. Besides, the concentration for total growth inhibition (TGI) with HS 578T breast was > 100 µM; in the assay with MCF7 breast, > 100 µM; in the assay on SF-295 CNS it was 0.0219 µM; with TK-10 renal it was > 100 µM.

Take `Cc1ccc(-c2c3c(nn2-c2ccc(S(=O)(=O)NC(=O)NC4CCCCC4)cc2)-c2ccccc2C3)cc1`: the GI50 is 16.1 µM in the assay on HCT-15 colon; 20.5 µM with HS 578T breast; 5.88 µM in the assay on MCF7 breast; 21 µM with MDA-MB-231 breast; 29.2 µM with OVCAR-5 ovarian; 18.7 µM in the assay with SF-295 CNS. Also, the GI50 with SK-MEL-28 melanoma was 18.3 µM; in the assay with SK-MEL-5 melanoma, 1.33 µM; with TK-10 renal, 1.7 µM. For the same compound, the total growth inhibition concentration (TGI) in the assay with HCT-15 colon stood at 47.7 µM; in the assay with HS 578T breast it was 60.4 µM; in the assay on MCF7 breast, 37.3 µM; in the assay on MDA-MB-231 breast it was 43.2 µM; with OVCAR-5 ovarian it was 70.3 µM; in the assay on SF-295 CNS, 48.7 µM. Also, the values for the TGI in the assay with SK-MEL-28 melanoma, in the assay with SK-MEL-5 melanoma and with TK-10 renal were 37.5 µM, 9.39 µM and 9.85 µM, respectively.

Take `O=C(NCCCl)Nc1ccccc1`: the TGI in the assay with HCC-2998 colon, with HCT-15 colon, with HS 578T breast, in the assay on MCF7 breast, in the assay with MDA-MB-231 breast and in the assay on OVCAR-5 ovarian was > 100 µM throughout. Besides, the TGI in the assay on SF-295 CNS, in the assay with SK-MEL-28 melanoma and in the assay on SK-MEL-5 melanoma was > 100 µM each time.

As to `O=C1CC(Cc2n[nH]c3c2CCCC3)CC(=O)N1`, the TGI in the assay on HCC-2998 colon, in the assay with HCT-15 colon, in the assay on MCF7 breast, in the assay with MDA-MB-231 breast, in the assay with OVCAR-5 ovarian and in the assay on SF-295 CNS was > 100 µM each time. For the same compound, the TGI in the assay with SK-MEL-28 melanoma, in the assay with SK-MEL-5 melanoma and in the assay with TK-10 renal was > 100 µM throughout.

Take `CN(C)C(=S)/N=c1\ssc(=S)n1Cc1ccco1`: the total growth inhibition concentration (TGI) in the assay on HCC-2998 colon is > 100 µM; with HCT-15 colon, > 100 µM; in the assay with MCF7 breast, > 100 µM; in the assay on MDA-MB-231 breast, 84.2 µM; with OVCAR-5 ovarian it was > 100 µM; in the assay with SF-295 CNS, > 23 µM. In addition, the results for the TGI in the assay with SK-MEL-28 melanoma, in the assay with SK-MEL-5 melanoma and in the assay with TK-10 renal were > 100 µM, 38.2 µM and > 100 µM, respectively.
